# Where “and” joins values, the source holds several entries; their conditions need not be identical. Equal values may be shown once. Read-outs that look alike come from different tables or passages of the source.
# Experiments:
# recombinant human MAO-B = recombinant human MAO-B (Homo sapiens, UniProt P27338); assay type: biochemical; conditions: preincubation 0-60 min, inhibitor about twofold IC50
# Protocol: The concentration of inhibitor in these incubations was approximately twofold the measured IC50 value for the inhibition of the MAO-B enzyme. Potassium phosphate buffer (100 mM, pH 7.4, made isotonic with NaCl) was used as the incubation medium. A final concentration of 30 hx00B5;M kynuramine for MAO-B was then added to the preincubated enzyme preparations and the resulting 250 µl reactions were incubated at 37 °C for 15 min. The reactions were terminated with the addition of 200 µl NaOH (2 N) and a volume of 600 µl distilled water was added to each reaction. The fluorescence of the MAO-B generated 4-hydroxyquinoline in the supernatant fractions were measured using a fluorescent microplate reader at an excitation wavelength of 310 nm and an emission wavelength of 400 nm. Time-dependent graphs were plotted against the relative fluorescent unit readings (RFU).
# To determine the binding mode of the studied compounds on MAO-B, the time dependency of enzyme inhibition was measured. If the compounds form a covalent or irreversible adduct with the enzyme, a time-dependent reduction of enzyme activity would be expected. […] For this purpose, the concentrations of the test compounds chosen were approximately twofold the measured IC50 values for the inhibition of the respective enzymes.
# recombinant human MAO-A = target: T1, recombinant human MAO-A (Homo sapiens, UniProt P21397); experiment: biochemical; conditions: 37 °C
# T1 sequence (P21397 1-527): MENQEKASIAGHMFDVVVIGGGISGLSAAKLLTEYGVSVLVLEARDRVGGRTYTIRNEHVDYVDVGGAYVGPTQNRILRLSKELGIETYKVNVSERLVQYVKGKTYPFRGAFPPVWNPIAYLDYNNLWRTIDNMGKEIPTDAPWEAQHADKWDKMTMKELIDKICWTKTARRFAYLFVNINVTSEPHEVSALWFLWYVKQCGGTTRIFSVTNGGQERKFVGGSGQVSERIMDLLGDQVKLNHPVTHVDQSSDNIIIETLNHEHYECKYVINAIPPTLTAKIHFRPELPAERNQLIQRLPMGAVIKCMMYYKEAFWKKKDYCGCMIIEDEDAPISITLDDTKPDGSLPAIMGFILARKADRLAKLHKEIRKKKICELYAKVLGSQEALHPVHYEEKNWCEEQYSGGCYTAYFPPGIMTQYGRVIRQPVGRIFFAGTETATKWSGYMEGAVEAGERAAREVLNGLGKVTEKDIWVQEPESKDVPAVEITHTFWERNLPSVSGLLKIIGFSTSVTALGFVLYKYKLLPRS
# Protocol: The stock was then further diluted by factors of ten to produce solutions of 1 mM, 100 µM, 10 µM, 1 µM, and 0.1 µM which would correspond to concentrations of 100 µM, 10 µM, 1 µM, 0.1 µM, and 0.01 µM in the final reaction mixture. A potassium phosphate buffer ([…] 100 mM, pH 7.4, 0.9% w/v NaCl) was prepared and refrigerated until further use. The enzyme stock solutions were prepared by dissolving 2.5 mg of enzyme in 33.33 ml of phosphate buffer to produce stock solutions of 0.075 mg/ml which were stored in aliquots at −80 °C until use. Once in the final reaction mixture, this enzyme solution will have a concentration of 0.0075 mg/ml. […] The fresh substrate was prepared on the day of the assay. The assay was carried out in 2 ml Eppendorf vials. […] Following this, 25 µl of the enzyme stock were added to each vial in 10 s intervals and the vials were incubated at 37 °C for 10 min. […] To stop the reaction at the end of this time 150 hx00B5;l of 2 N NaOH was added and the mixture was shaken. Using a micropipette 80 hx00B5;l of the mixture was transferred to a well in a black 96 well plate. The plate was placed in the fluorescent plate reader and read at an excitation/emission wavelength of 310 nm/410 nm. Each assay was run in triplicate and the data were analysed with Graph Pad Prism 8 software (San Diego, USA).
# The MAO inhibitory activity of the compounds was assessed using a fluorometric assay with recombinant human MAO-A and human MAO-B enzymes.
# [1] = system: Aβ 25–35 treated SH-SY5Y cells; experiment: Amyloid-beta 25–35 induced neurotoxicity (MTT); assay type: cell-based, human; conditions: 10 µM to 100 µM compound, Aβ 25–35 20 µM, 24 h
# Protocol: Human neuroblastoma cells (SH-SY5Y) were grown in a culture medium (DMEM/F-12) and supplemented with 10% foetal bovine serum. Prophylactically, 1% v/v of penicillin/streptomycin was added to the medium. Cells were maintained by incubation at 37 °C with 5% carbon dioxide. All experiments were performed by seeding the cells into 24-well plates. Once confluent, the cells were then pre-treated with compounds 6 and 7 (10 µM) for 1 h, followed by Aβ 25–35 addition (20 µM) and incubated for 24 h. The untreated control cells were treated with DMEM which contained DMSO and were incubated in the same manner as the treated cells. […] The level of significance was analysed using One-way ANOVA statistical analysis and expressed using the p-value.
# The accumulation of extracellular Aβ plaques has been marked as one of the pathological hallmarks of neurotoxicity associated with AD[59–61] and coumarin moieties have previously shown to inhibit Aβ plaque formation and Aβ induced neurotoxicity[62]^,[63]. To further explore the neuroprotective potential of the propargylamine-containing coumarin derivatives 6 and 7, their ability to curb neurotoxicity induced by the amyloid-β (Aβ) protein was thus assessed according to the method described in the experimental section. […]
# [2] = system: SH-SY5Y neuroblastoma cells; experiment: MTT cytotoxicity assay; assay type: cell-based, human; conditions: 48 h
# Protocol: The human neuroblastoma SH-SY5Y cells were generously donated by collaborators from the Blackburn Laboratory, University of Cape Town. Cells were cultured in monolayer in Dulbecco’s Modified Eagle Medium (DMEM, Gibco, Life Technologies Corporation UK), supplemented with 10% foetal bovine serum (FBS, Gibco, Life Technologies Corporation, Paisley, UK), 100 U/ml penicillin, and 100 µg/ml streptomycin (Lonza Group Ltd., Verviers Belgium). Cultures were incubated at 37 °C in a humidified atmosphere with 5% CO2. The growth medium was replaced every 3 days and cells were sub-cultured when they attained 70 to 80% confluency using a solution of 0.25% trypsin EDTA (Lonza Group Ltd., Verviers, Belgium).
# SH-SY5Y cells were plated in growth medium in the flat bottom 96 well plates at a density of approximately 7500 cells/well. The cells were allowed to adhere to the plate surface for 24 h and following this their media were replenished with fresh media containing the test compounds at 10 µM, 50 µM and 100 µM concentrations dissolved in DMSO. Vehicle control cells were treated with DMSO, at a concentration similar to that of the highest concentration of the test compounds. Following an incubation period of 48 h, 10 µl of MTT solution (5 mg/ml) was added to each well. This was further incubated for 4 h and the formazan formed was solubilised with 100 µl of DMSO. The plates were read using a BMG Labtech Omega® POLARStar plate reader spectrophotometer (Ortenberg, Germany) to determine the absorbance recorded at a wavelength of 570 nm. The percentage cell viability was calculated relative to the vehicle control using the following formula: Cellviability%=(Absorbanceoftreatedwell/Absorbanceofuntreatedwell)×100 [drawing 1]
# [3] = kynuramine 45 µM, read-out: MAO-A IC50
# Sequence of recombinant human MAO-B (P27338 whole entry): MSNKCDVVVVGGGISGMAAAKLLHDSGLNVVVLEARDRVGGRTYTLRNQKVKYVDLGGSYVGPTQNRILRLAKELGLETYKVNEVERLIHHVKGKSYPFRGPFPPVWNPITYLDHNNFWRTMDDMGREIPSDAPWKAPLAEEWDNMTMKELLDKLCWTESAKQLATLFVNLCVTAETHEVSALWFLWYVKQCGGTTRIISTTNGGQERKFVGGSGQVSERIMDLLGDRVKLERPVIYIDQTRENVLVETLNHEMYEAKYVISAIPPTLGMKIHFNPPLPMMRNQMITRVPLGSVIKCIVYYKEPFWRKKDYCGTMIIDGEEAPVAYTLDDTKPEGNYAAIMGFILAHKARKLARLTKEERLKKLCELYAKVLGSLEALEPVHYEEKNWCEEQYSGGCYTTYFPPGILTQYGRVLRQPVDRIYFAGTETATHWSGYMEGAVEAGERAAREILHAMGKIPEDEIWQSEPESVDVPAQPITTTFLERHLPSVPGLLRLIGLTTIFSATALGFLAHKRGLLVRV
Compound,mode of MAO-B inhibition (time dependency) (recombinant human MAO-B),IC50 (recombinant human MAO-A; [3]),neuroprotection against Aβ 25–35 cytotoxicity [1],cell survival (MTT) ([2]; 50 µM) [%],cell survival (MTT) ([2]; 100 µM) [%],"IC50 (recombinant human MAO-A; MAO-A IC50, kynuramine 45 µM) [nM]"
"C#CCNCc1cc2ccc(OCCc3ccccc3)cc2oc1=O [Compound 6, 7-(2-phenylethoxy)-3-{[(prop-2-yn-1-yl)amino]methyl}-2H-1-benzopyran-2-one]",reversible inhibitors of MAO-B,3860 nM,did not show any significant ability to mitigate the cytotoxic effects,–,–,–
"O=c1oc2cc(OCCc3ccccc3)ccc2cc1CBr [Compound 4, 3-(bromomethyl)-7-(2-phenylethoxy)-2H-1-benzopyran-2-one]",–,480 nM and 476 nM,–,65,7,–
"C#CCNCc1cc2ccc(OC(=O)N(CC)CC)cc2oc1=O [Compound 7, 2-oxo-3-{[(prop-2-yn-1-yl)amino]methyl}-2H-1-benzopyran-7-yl-diethylcarbamate]",reversible inhibitors of MAO-B,–,did not show any significant ability to mitigate the cytotoxic effects,–,–,20800
"CCN(CC)C(=O)Oc1ccc2cc(CBr)c(=O)oc2c1 [Compound 5, 3-(bromomethyl)-2-oxo-2H-1-benzopyran-7-yl-diethylcarbamate]",–,360 nM and 355 nM,–,0,0,–
